Measurements reported in PMC10928712, “High Target Homology Does Not Guarantee Inhibition: Aminothiazoles Emerge as Inhibitors of Plasmodium falciparum” (ACS Infectious Diseases, 2024).
In brackets after ≈: the same amount, converted by molar mass.

What was measured:
[1] = Kinetic solubility determination; assay type: physicochemical; settings: PBS buffer and 2% DMSO; for solubility at 5 min: PBS with 2% DMSO, aqueous buffer, kinetic from dmso stock, read-out: Max. solubility
Method: The desired compounds were sequentially diluted in DMSO in a 96-well plate. 3 μL of each well was transferred into another 96-well plate and mixed with 147 μL of PBS. Plates were shaken for 5 min at 600 rpm at room temperature (r.t.), and the absorbance at 620 nm was measured. Absorbance values were normalized by blank subtraction and plotted using GraphPad Prism 8.4.2 (GraphPad Software, San Diego, California, USA). Solubility (S) was determined based on the First X value of AUC function using a threshold of 0.005.

[2] = tested on: P. falciparum 3D7; assay: Method III growth inhibition assay (HRP2-ELISA, 3 days), 3D7; assay type: cell-based, Plasmodium falciparum
[3] = tested on: P. falciparum Dd2; assay: Method III growth inhibition assay (HRP2-ELISA, 3 days), Dd2; assay type: cell-based, Plasmodium falciparum; settings: Plasmodium falciparum, DD2, chloroquine-resistant Dd2, method III
[4] = Metabolic stability in human liver S9 fraction; assay type: in vitro ADME; settings: human, pooled liver S9 fraction, 1 μM compound
Method: For the evaluation of combined phase I and phase II metabolic stability, the compound (1 μM) was incubated with 1 mg/mL pooled liver S9 fraction (XenoTech), 2 mM NADPH, 1 mM UDPGA, 10 mM MgCl2, 5 mM GSH, and 0.1 mM PAPS at 37 °C for 0, 5, 15, 30, and 60 min. The metabolic stabilities of testosterone (1 μM), verapamil (1 μM), and propranolol (1 μM) were determined in parallel to confirm the enzymatic activity of the S9 fraction. The incubation was stopped by precipitation of S9 enzymes with two volumes of cold acetonitrile containing internal standard (150 nM diphenhydramine). Samples were stored on ice for 10 min, and precipitated protein was removed by centrifugation (15 min, 4 °C, 4000 rpm). The concentration of the remaining test compound at the different time points was analyzed by LC-MS/MS (TSQ Quantum Access MAX, Thermo Fisher, Dreieich, Germany) and used to determine half-life (t1/2).

[5] = tested on: Hep G2 cells; assay: Hep G2 viability assay (counter screen); assay type: cell-based, human; settings: for IC50: Homo sapiens, HepG2, 48 h, cytotoxicity, 48 h
Method: HepG2 cells (2 × 10^5 cells per well) were seeded in 24-well, flat-bottomed plates. Culturing of cells, incubations, and OD measurements were performed as described previously with small modifications.[58] 24 h after seeding the cells, the incubation was started by the addition of compounds in a final DMSO concentration of 1%. The metabolic activity of the living cell mass was determined after 48 h. At least three independent measurements were performed for each compound. The IC50 values were determined during logarithmic growth using GraphPad Prism software. All experiments were performed at least in triplicate, and data reported represent the mean ± SD.

[6] = tested on: P. falciparum NF54; assay: Method II growth-inhibition assay (PicoGreen, 3 days), NF54; assay type: cell-based; settings: Plasmodium falciparum; chloroquine-sensitive NF54, method II
Text: (§1) Fidock (Columbia University).

[7] = tested on: P. falciparum NF54; assay: IDP rescue assay, P. falciparum NF54; assay type: cell-based; settings: Plasmodium falciparum
Method: (§2) Fidock (Columbia University). […] P. falciparum cultures were treated as described in method II. For IDP (Isoprenoids.com) rescue experiments, 125 μM IDP was added to the appropriate wells for the duration of the experiment. The well-described DXR inhibitor FSM was used as a positive control. IC50 values were calculated by nonlinear regression analysis using GraphPad Prism software. All experiments were performed at least in triplicate, and data reported represent the mean ± SD.

[8] = tested on: P. falciparum 3D7; assay: IDP rescue assay, P. falciparum 3D7; assay type: cell-based; settings: Plasmodium falciparum
Method: as §2

[9] = tested on: P. falciparum 3D7; assay: Method II growth-inhibition assay (PicoGreen, 3 days), 3D7; assay type: cell-based; settings: Plasmodium falciparum; 3D7, method II; read-out: IC50 3D7-II
Text: as §1

[10] = tested on: P. falciparum 3D7; assay: Method I growth-inhibition assay (SYBR Green I, 96 h); assay type: cell-based; settings: Plasmodium falciparum; 3D7, method I; nM; read-out: IC50 3D7-I
Text: Nonlinear regression as implemented in GraphPad Prism 7.00 (log(inhibitor) vs response – variable slope (four parameters)) was used to fit the measured data to interpolate the IC50 value from the curve. No specific model was applied. Data was preprocessed by normalizing according to the following formula: […]
eq 1: Fluorescence data normalization [drawing 2] where y is the fluorescence signal in each well, yminimum is the background fluorescence, and ymaximum is the highest measured fluorescence signal in the untreated wells. Drug concentrations (in μM) were transformed to the log(10)of the values. Means of each independent experiment were plotted as individual values, and the SD of the mean from the means shown as error bars. […] In case of transgenic cell lines, the built-in comparison Akaike’s information criteria (AICc) method was applied to the Log IC50s of the different cell lines. The test calculates a percentage probability of the simpler model “Log IC50 is the same for datasets” being correct. The test for homoscedasticity was performed to confirm if no weighting of values was appropriate.

[11] = Plasmodium falciparum, 3D7, 3D7, method III (HRP2 assay), drc package of R, read-out: IC50 P. falciparum 3D7 (method III)
[12] = Plasmodium falciparum, 3D7, table of compounds as SMILES with biological activity, strain not given, values match 3D7 method III, read-out: IC50
[13] = 3D7, method III (HRP2 assay), drc package of R, read-out: IC50 P. falciparum 3D7 (method III)

Row | SMILES | solubility at 5 min [1] | IC50 [2, 11] | IC50 [3] | IC50 [5] | further results
1 | COc1ccc(/C(Cc2ccc(N)cc2)=N/O)c(OC)c1 [compound 6, (E)-2-(4-Aminophenyl)-1-(2,4-dimethoxyphenyl)ethan-1-one oxime] | 119 ± 27.4 µM (≈ 34.2 µg/mL) | > 111000 nM | > 111000 nM | – | –
2 | Nc1ccc(C(Cc2ccc(Cl)cc2)=NO)c(O)c1 [compound 10] | – | 38000 ± 11000 nM | 24000 ± 4000 nM | 50000 to 100000 nM | IC50 [2, 12]: 38200 nM; half-life at 1 μM [4]: 0.9333 ± 0.00667 h
3 | Nc1ccc(C/C(=N\O)c2ccc(O)cc2O)cc1 [compound 5, (E)-2-(4-Aminophenyl)-1-(2,4-dihydroxyphenyl)ethan-1-one oxime] | ~200 µM (≈ 51.7 µg/mL) | > 111000 nM | > 111000 nM | – | Max. solubility [1]: 193.6 ± 95.7 µM
4 | OCc1cn(Cc2ccc(Cl)c(Cl)c2)c2cccc(F)c12 [compound 33, (1-(3,4-Dichlorobenzyl)-4-fluoro-1H-indol-3-yl)methanol] | – | 3000 nM | 3000 nM | 790 ± 370 nM | IC50 [6]: 3000 ± 1000 nM; IC50 [2, 13]: 2000 nM; IC50 [2, 12]: 2400 nM; IC50 ([7]; NF54, 72 h, + IDP (125 μM)): 2200 nM; IC50 ([7]; NF54, without IDP): 2400 ± 600 nM; IC50 ([8]; 3D7, 72 h, + IDP (125 μM)): 3100 nM; IC50 ([8]; 3D7, without IDP): 2700 ± 300 nM; IC50 [9]: 3000 nM
5 | COc1cc(O)ccc1/C(Cc1ccc(N)cc1)=N/O [compound 4, (E)-2-(4-Aminophenyl)-1-(4-hydroxy-2-methoxyphenyl)ethan-1-one oxime] | ~200 µM (≈ 54.5 µg/mL) | > 111000 nM | 94000 ± 16000 nM | – | Max. solubility [1]: 202.6 ± 1.6 µM
6 | CCN(CC)CCCC(C)Nc1ccnc2cc(Cl)ccc12 (stereo not drawn) [Chloroquine, chloroquine diphosphate, reference compound] | – | – | 190 ± 30 nM | – | IC50 ([2]; Plasmodium falciparum, 3D7, 3D7, method III, nM, read-out: IC50 3D7-III): 2.8 ± 0.7 nM; IC50 [10]: 17.8 ± 3.1 nM
7 | Oc1ccc(C(O)Cc2ccc(Cl)cc2)c(O)c1 (stereo not drawn) [compound 13, 4-(2-(4-Chlorophenyl)-1-hydroxyethyl)benzene-1,3-diol] | – | 9900 ± 1700 nM | 28000 ± 13000 nM | > 100000 nM | IC50 [2, 13]: 10000 ± 2000 nM; half-life at 1 μM [4]: 1.63 ± 0.167 h; cytotoxicity towards Hep G2 cells ([5]; at 100 μM): no cytotoxicity
